These results are taken from PMC12621184, “Synthesis and Pharmacological Characterization of Nociceptin/Orphanin FQ Dimeric Ligands” (Journal of Medicinal Chemistry, 2025).

Where “and” joins values, the source holds several entries; their conditions need not be identical. Equal values may be shown once. Bridge positions count the residues as written; N and C are the ends. Peptide text beside a SMILES is read from it. I, II: the chains in the order shown.

Experiment [1] deals with T1, human μ opioid receptor (Homo sapiens, UniProt P35372).
T1 construct: expressed in transfected cells
T1 sequence (P35372 whole entry): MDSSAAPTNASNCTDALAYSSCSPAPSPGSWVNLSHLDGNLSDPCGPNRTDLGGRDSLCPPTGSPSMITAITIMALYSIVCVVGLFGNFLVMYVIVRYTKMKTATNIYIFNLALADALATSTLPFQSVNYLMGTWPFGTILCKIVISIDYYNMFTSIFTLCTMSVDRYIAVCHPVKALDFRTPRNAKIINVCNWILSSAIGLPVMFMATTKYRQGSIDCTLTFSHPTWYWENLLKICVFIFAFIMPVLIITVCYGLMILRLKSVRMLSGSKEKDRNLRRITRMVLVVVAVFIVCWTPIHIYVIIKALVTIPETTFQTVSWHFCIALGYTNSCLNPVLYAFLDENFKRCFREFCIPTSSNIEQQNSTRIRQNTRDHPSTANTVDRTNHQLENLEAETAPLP
Kind of experiment: Calcium mobilization assay, CHO cells with μ receptor and chimeric G protein. The experiment is classed as cell-based. The settings on record: CHO cells coexpressing human μ receptor and Gαqi5; 5 experiments in duplicate; read-out: calcium mobilization at μ receptor, concentration up to which inactive. As to the method:
(§1) Chinese hamster ovary (CHO) cells stably coexpressing the human NOP, μ, or κ opioid receptors and the Gαqi5 protein or the human δ and the GαqG66Di5 protein were used in this assay. , Cells were cultured in DMEM/F-12 (1:1) medium supplemented with 10% FBS, 2 mM L-glutamine, […], 100 IU/mL penicillin, and 100 IU/mL streptomycin. Cells were maintained at 37 °C in a humidified atmosphere with 5% CO2 and were seeded at 50 000 cells/well into 96-well black, clear-bottom plates 24 h before test. Loading for 45 min with a solution consisting of HBSS supplemented with 2.5 mM probenecid, 3 μM Fluo-4 AM, and 0.01% pluronic acid ensures the calcium-sensitive dye (Fluo-4) reaches the needed concentration inside the cell, while the exchange of the solution with 100 μL/well of buffer consisting of HBSS with 20 mM HEPES, 2.5 mM probenecid, and 500 μM Brilliant Black allows for fluorescence background to decrease. Serial dilutions of ligands were prepared in HBSS buffer with 20 mM HEPES and 0.02% bovine serum albumin (BSA) to minimize the ligands’ stickiness to plasticware. The automated microplate reader FlexStation II (Molecular Devices, CA, US) was employed at 37 °C to detect changes in fluorescence intensity. The effects of all compounds were expressed as the maximum change in percentage over the baseline fluorescence measured in samples treated with vehicles. […]

The target of experiment [2] is T2, human κ opioid receptor (Homo sapiens, UniProt P41145).
T2 construct: expressed in transfected cells
T2 sequence (P41145 whole entry): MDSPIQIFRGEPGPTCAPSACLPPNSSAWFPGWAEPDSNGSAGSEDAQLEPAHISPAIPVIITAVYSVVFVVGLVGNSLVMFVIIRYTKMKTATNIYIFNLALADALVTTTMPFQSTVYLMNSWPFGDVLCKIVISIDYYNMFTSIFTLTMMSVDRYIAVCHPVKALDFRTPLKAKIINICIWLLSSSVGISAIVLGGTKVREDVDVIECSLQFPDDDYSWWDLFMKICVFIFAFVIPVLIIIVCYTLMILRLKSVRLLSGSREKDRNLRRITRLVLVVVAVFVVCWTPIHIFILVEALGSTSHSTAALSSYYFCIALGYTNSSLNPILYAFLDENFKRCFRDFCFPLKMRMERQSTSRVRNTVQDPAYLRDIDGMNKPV
Kind of experiment: Calcium mobilization assay, CHO cells with κ receptor and chimeric G protein. The format is cell-based. The settings on record: CHO cells coexpressing human κ receptor and Gαqi5; 5 experiments in duplicate; read-out: calcium mobilization at κ receptor, concentration up to which inactive. As to the method:
as §1

The subject of experiment [3] is mouse vas deferens from NOP(+/+) mice. Kind of experiment: Electrically stimulated mouse vas deferens bioassay, NOP(+/+) tissues. On the procedure: This study was approved by the Animal Welfare Body of the University of Ferrara and by the Italian Ministry of Health (authorization number CBCC2.N.BXI). Experiments were performed on an isolated mouse vas deferens. All experiments were conducted with mice bred and housed in the University of Ferrara’s animal facility under specific pathogen-free conditions (SPF). All mice were housed in cages with individual ventilation, with a constant temperature of 21 °C, 60% humidity, and a 12 h light/dark cycle. Food and water were provided ad libitum. CD-1 NOP(+/+) and CD-1 NOP(−/−) male mice, aged 9 to 12 months, were used. Animals were sacrificed on the day of the experiment with CO2 overdose. Bioassay experiments were performed as previously described. The tissues were suspended in 5 mL organ bath containing Krebs solution (NaCl 118.5 […]). The Krebs solution was oxygenated with 95% O2 and 5% CO2 and the temperature set at 33 °C with a resting tension of 0.3 g applied to the tissues. Tissues were stimulated through two platinum electrodes with a supramaximal rectangular pulse of 1 ms duration, 0.05 Hz frequency, and 80 V of amplitude. The electrically evoked contractions were measured isotonically by means of Basile strain gauge transducers (Basile, IT) and a recorder with a Power Lab 8 instrument (ADInstruments, CO, U.S.). Following an equilibration period of approximately 60 min, the contractions induced by electrical field stimulation were stable. At this time, cumulative concentration response curves were carried out.
(§2) Concentration-response curves to agonists were analyzed by a four-parameter logistic nonlinear regression model: Effect = baseline + (E max – baseline)/(1 + 10^((logEC50–log[ligand])slope)). […] Experimental data were expressed as mean ± sem of at least 5 experiments. Potency values were expressed as the mean and CL95%. In vitro E max values were analyzed by one-way ANOVA, while in vivo latency data were evaluated by one-way ANOVA followed by Dunnett’s post hoc test. The proportion of mice losing the righting reflex was compared by Fisher’s exact test performed on raw data. GraphPad Prism 10.0 software was used for all of the analyses. The terminology employed is consistent with the International Union of Basic and Clinical Pharmacology (IUPHAR) recommendations. ,

In experiment [4] the test system is loss of the righting reflex (RR) in NOP(−/−) mice. The experiment is described as follows: Loss of the righting reflex assay in NOP(−/−) mice. The experiment is classed as in vivo, mouse. The settings on record: 10 nmol, icv; N = 7–9 per group. As to the method:
All of the experimental procedures adopted in the in vivo studies comply with the European Directive 2010/63/EU on protecting animals used for scientific purposes and Italian Legislative Decree no. 26 of March 4, 2014. These experiments were approved by the Animal Welfare Body of the University of Ferrara and by the Ministry of Health (authorization number 677/2024-PR). In vivo studies have been reported following ARRIVE guidelines. All experiments were conducted with mice bred and housed in the University of Ferrara’s animal facility under specific pathogen-free conditions. All mice were housed in cages with individual ventilation, with a constant temperature of 21 °C, 60% humidity, and a 12 h light/dark cycle. Food and water were provided ad libitum. […] When the animals lost RR, they were placed in a plastic cage, and the time was recorded by an expert observer, blind to drug treatments and/or genotype. […]
Concentration-response curves to agonists were analyzed by a four-parameter logistic nonlinear regression model: Effect = baseline + (E max – baseline)/(1 + 10^((logEC50–log[ligand])slope)). […] Experimental data were expressed as mean ± sem of at least 5 experiments. Potency values were expressed as the mean and CL95%. In vitro E max values were analyzed by one-way ANOVA, while in vivo latency data were evaluated by one-way ANOVA followed by Dunnett’s post hoc test. […]

The target in experiment [5] is human NOP (Homo sapiens, UniProt P41146). The experiment is described as follows: Calcium mobilization assay, CHO cells with NOP receptor and chimeric G protein. The experiment is classed as cell-based. More on the design: expressed in transfected cells. As to the method: Chinese hamster ovary (CHO) cells stably coexpressing the human NOP, μ, or κ opioid receptors and the Gαqi5 protein or the human δ and the GαqG66Di5 protein were used in this assay. , Cells were cultured in DMEM/F-12 (1:1) medium supplemented with 10% FBS, 2 mM L-glutamine, […], 100 IU/mL penicillin, and 100 IU/mL streptomycin. Cells were maintained at 37 °C in a humidified atmosphere with 5% CO2 and were seeded at 50 000 cells/well into 96-well black, clear-bottom plates 24 h before test. Loading for 45 min with a solution consisting of HBSS supplemented with 2.5 mM probenecid, 3 μM Fluo-4 AM, and 0.01% pluronic acid ensures the calcium-sensitive dye (Fluo-4) reaches the needed concentration inside the cell, while the exchange of the solution with 100 μL/well of buffer consisting of HBSS with 20 mM HEPES, 2.5 mM probenecid, and 500 μM Brilliant Black allows for fluorescence background to decrease. Serial dilutions of ligands were prepared in HBSS buffer with 20 mM HEPES and 0.02% bovine serum albumin (BSA) to minimize the ligands’ stickiness to plasticware. The automated microplate reader FlexStation II (Molecular Devices, CA, US) was employed at 37 °C to detect changes in fluorescence intensity. The effects of all compounds were expressed as the maximum change in percentage over the baseline fluorescence measured in samples treated with vehicles.
Sequence of human NOP (P41146 whole entry): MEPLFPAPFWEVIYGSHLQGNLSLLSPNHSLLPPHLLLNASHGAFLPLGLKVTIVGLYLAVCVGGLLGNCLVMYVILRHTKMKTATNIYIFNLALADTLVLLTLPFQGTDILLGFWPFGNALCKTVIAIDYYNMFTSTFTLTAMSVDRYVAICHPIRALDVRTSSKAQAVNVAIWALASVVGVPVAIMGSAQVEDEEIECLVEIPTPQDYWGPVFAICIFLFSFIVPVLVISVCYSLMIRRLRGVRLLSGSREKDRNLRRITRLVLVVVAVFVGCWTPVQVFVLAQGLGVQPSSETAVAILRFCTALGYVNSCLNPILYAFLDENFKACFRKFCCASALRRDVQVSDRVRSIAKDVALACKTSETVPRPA
as §2
On the technique in general: Calcium assays in cells follow changes in intracellular calcium, usually with a dye or a luminescent sensor.

In the case of `C[C@H](NC(=O)CNC(=O)[C@@H](NC(=O)[C@H](Cc1ccccc1)NC(=O)CNC(=O)CNC(=O)[C@@H](N)Cc1ccccc1)[C@@H](C)O)C(=O)N[C@@H](CCCNC(=N)N)C(=O)N[C@@H](CCCCN)C(=O)N[C@@H](CO)C(=O)N[C@@H](C)C(=O)N[C@@H](CCCNC(=N)N)C(=O)N[C@@H](CCCCN)C(=O)N[C@@H](CSSC[C@H](NC(=O)[C@H](CCCCN)NC(=O)[C@H](CCCNC(=N)N)NC(=O)[C@H](C)NC(=O)[C@H](CO)NC(=O)[C@H](CCCCN)NC(=O)[C@H](CCCNC(=N)N)NC(=O)[C@H](C)NC(=O)CNC(=O)[C@@H](NC(=O)[C@H](Cc1ccccc1)NC(=O)CNC(=O)CNC(=O)[C@@H](N)Cc1ccccc1)[C@@H](C)O)C(=O)N[C@@H](C)C(=O)N[C@@H](CC(N)=O)C(=O)N[C@@H](CCC(N)=O)C(N)=O)C(=O)N[C@@H](C)C(=O)N[C@@H](CC(N)=O)C(=O)N[C@@H](CCC(N)=O)C(N)=O` [1h, [[Cys^14]N/OFQ-NH2]2] (I: H-FGGFTGARKSARKCANQ-NH2 / II: H-FGGFTGARKSARKCANQ-NH2; disulfide I:14-II:14; N-terminus assumed), the EC50 in experiment [1] is over 1000 nM; in experiment [2] it was over 1000 nM; in experiment [5] (CHO cells coexpressing human NOP and Gαqi5, Fluo-4, 37 °C, mean (CL95%), N = 5 experiments in duplicate, read-out: Ca^2+ mobilization pEC50 (CL95%) (converted)), < 1 nM and 0.724 nM. Further, the “potency (pEC50) for inhibition of electrically induced contractions” value in experiment [3] (mVD from CD-1 NOP(+/+) mice, 33 °C, mean (CL95%), 5 experiments) is reported as 6.79 (6.02–7.56). For the same compound, the “decrease in mVD potency compared to N/OFQ” value in experiment [3] (mVD, vs N/OFQ) is “approximately 3 fold”. In experiment [3] (onset and reversibility upon washout), the “kinetics of action in mVD (in words)” value was “fully and rapidly reversible upon washout”. For the same compound, in experiment [4], the “loss of the RR in NOP(−/−) mice (in words)” value is “completely inactive”. In experiment [5] (CHO cells coexpressing human NOP and Gαqi5, maximum change in percentage over baseline fluorescence, mean ± sem, N = 5 in duplicate), the “Ca^2+ mobilization E max ± sem” value came to 241 ± 38 % over the baseline. The “selectivity for the NOP over classical opioid receptors” value in experiment [5] (calcium mobilization, NOP vs μ, δ, κ receptors) is on record as “more than 1000 fold”.
